Test systems include SW-620; SK-OV-3; COLO 205; HT-29; SNB-75; NCI-H23; KM12; CAKI-1; CCRF-CEM; SF-295; HCT-15; OVCAR-5; SK-MEL-5; MCF7; RXF 393; SK-MEL-2; IGROV-1; UACC-257; OVCAR-8; MOLT-4.
Test in all cases: NCI anticancer screen, dose series, 48 h

This is an account of results in ChEMBL document CHEMBL1201862, “PubChem BioAssay data set” (2004).

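Method: 48-hour compound exposure of cells in 96-well plates, five concentrations, linear interpolation of endpoints. The concentration for 50% growth inhibition is given as GI50.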 The source made the active and inactive calls. No stated cut-off is given here; in the data, active = GI50 up to about 1.1 µM and inactive = higher. Bounds are passed on as bounds.

Consider `CN(C)CCOc1cc2c(c3ccccc13)-c1ccccc1C2O` (stereo not given), for which the GI50 was 12.4 µM (inactive) in the assay with SW-620; 16.1 µM (inactive) in the assay with SK-OV-3; 12.5 µM (inactive) in the assay on COLO 205; 13.5 µM (inactive) in the assay with HT-29; 10.3 µM (inactive) in the assay on SNB-75; 16.9 µM (inactive) in the assay on NCI-H23. The GI50 in the assay with KM12 was 14.8 µM (inactive); with CAKI-1 it was 12.9 µM (inactive); in the assay with CCRF-CEM it was 14.1 µM (inactive); with SF-295, 13.5 µM (inactive); in the assay with HCT-15, 12.4 µM; in the assay with OVCAR-5, 13 µM (inactive). Further, the GI50 was 15.5 µM (inactive) in the assay with SK-MEL-5; 12.8 µM (inactive) in the assay on MCF7; 1.47 µM (inactive) in the assay on RXF 393; 17.2 µM (inactive) in the assay on SK-MEL-2; 16.7 µM (inactive) with IGROV-1; 15.5 µM (inactive) in the assay on UACC-257. Also, the GI50 is 11.7 µM (inactive) in the assay with OVCAR-8 and 3.33 µM (inactive) in the assay on MOLT-4.

For `COc1ccc2c(O)c3[n+](cc2c1OC)CCc1cc2c(cc1-3)OCO2`, the GI50 in the assay with SW-620 is 45.5 µM (inactive); in the assay with SK-OV-3, > 100 µM (inactive); in the assay on COLO 205, > 100 µM (inactive); in the assay with HT-29, 63.2 µM (inactive); with SNB-75, > 100 µM (inactive); in the assay on NCI-H23 it was > 100 µM (inactive). Further, the GI50 is 66.1 µM (inactive) in the assay on KM12; > 100 µM (inactive) with CAKI-1; 52.8 µM (inactive) in the assay on CCRF-CEM; 42.9 µM (inactive) in the assay on SF-295; 84.3 µM with HCT-15; > 100 µM (inactive) with OVCAR-5. Further, the GI50 with SK-MEL-5 is 99.1 µM (inactive); in the assay with MCF7, 56.2 µM (inactive); in the assay on RXF 393, 25.4 µM (inactive); in the assay with SK-MEL-2, > 100 µM (inactive); in the assay with IGROV-1, 91.8 µM (inactive); in the assay on UACC-257, > 100 µM (inactive). The GI50 with OVCAR-8 and in the assay with MOLT-4 was > 100 µM (inactive) throughout.

As to `C=CCOC1OC(CS(=O)(=O)O)C(O)C(O)C1O` (stereo not given), the GI50 in the assay with SW-620, with SK-OV-3, in the assay with COLO 205, with HT-29, in the assay on SNB-75 and in the assay on NCI-H23 was > 100 µM (inactive) throughout. Also, the GI50 in the assay with KM12 was > 100 µM (inactive); with CAKI-1, > 100 µM (inactive); with CCRF-CEM it was > 10 µM (inactive); with SF-295 it was > 100 µM (inactive); in the assay with HCT-15 it was > 100 µM; in the assay with OVCAR-5, > 100 µM (inactive). Also, the GI50 with SK-MEL-5, with MCF7, in the assay on RXF 393, in the assay with SK-MEL-2, in the assay on IGROV-1 and in the assay on UACC-257 was > 100 µM (inactive) each time. Moreover, the GI50 with OVCAR-8 and with MOLT-4 was > 100 µM (inactive) each time.

As to `COc1cccc(C2c3cc4c(cc3OC(NNS(=O)(=O)c3ccc(C)cc3)C2C)OCO4)c1O` (stereo not given), the GI50 was 23 µM (inactive) in the assay on SW-620; 38.8 µM (inactive) in the assay with SK-OV-3; 17.8 µM (inactive) with COLO 205; 17.9 µM (inactive) with HT-29; 11.2 µM (inactive) in the assay on SNB-75; 29.2 µM (inactive) in the assay on NCI-H23. The GI50 with KM12 is 20.3 µM (inactive); in the assay on CAKI-1 it was 24.2 µM (inactive); with CCRF-CEM, 10 µM (inactive); in the assay on SF-295 it was 20.8 µM (inactive); in the assay on HCT-15, 23.5 µM; with OVCAR-5 it was 52.4 µM (inactive). For the same compound, the GI50 in the assay on SK-MEL-5 was 20.4 µM (inactive); in the assay on MCF7, 18.7 µM (inactive); in the assay with RXF 393, 21.3 µM (inactive); with SK-MEL-2, 17.4 µM (inactive); with IGROV-1, 26.9 µM (inactive); in the assay on UACC-257 it was 19.7 µM (inactive). For the same compound, the GI50 in the assay with OVCAR-8 is 1.69 µM (inactive); in the assay on MOLT-4, 10.7 µM (inactive).
